# Experimental data as given in patent US5334619A, “Inhibition of postharvest fruit decay by 2-nonanone” (priority 1993, dated 1994).
# What was measured:
# [1] = tested on: composite spore suspension of A. alternata, B. cinerea and C. gloeosporioides on red raspberries; assay: Fungal growth on inoculated raspberry fruit exposed to volatile compounds; settings: 0.4 μl/ml vapor, 10 days, 10° C.; mean, 0 = no fungi present, 3 = fruit completely covered by fungal mycelia
# Procedure: (§1) Fungal cultures of A. alternata and B. cinerea were obtained from the Agricultural Research Service, NRRL Culture Collection in Peoria, Ill. […] An isolate of C. gloeosporioides pathogenic on blueberries was obtained from the USDA/ARS Cranberry and Blueberry Research Center, Chatsworth, N.J. All cultures were maintained at 24° C. and 95% relative humidity on V-8 juice agar supplemented with 0.3% CaCO3 and adjusted to pH 5.8. Spores of each fungus were removed from sporulating cultures by carefully brushing the surface of the media with a glass rod and suspending the spores in sterile water. The concentrations of spores in the suspensions were adjusted to concentrations of 10^6 to 10^7 spores/ml. These suspensions were mixed together to form a composite suspension which was used to inoculate all the fruit in a given experiment.
# (§2) Untreated red raspberries (cv. `Heritage`) and strawberries (cv. `Ozark Beauty`) were harvested and used the same day. Berries were selected on the basis of uniform size, color, firmness, and absence of evidence of defects or diseases.
# (§3) A bioassay system was developed to test the effects of the volatile compounds on fungal growth both on intact fruit and on V-8 juice medium. The apparatus consisted of 75 ml glass jars into which either fruit or sterilized V-8 juice medium (10 ml) were added. […]
# [2] = tested on: composite spore suspension of A. alternata, B. cinerea and C. gloeosporioides on strawberries; assay: Fungal growth on inoculated strawberry fruit exposed to volatile compounds; settings: 0.4 μl/ml vapor, 10 days, 10° C.; mean, 0 = no fungi present, 3 = fruit completely covered by fungal mycelia
# Procedure: as §1, §2, §3
# [3] = tested on: red raspberries (cv. `Heritage`); assay: Fruit damage rating of inoculated raspberry fruit exposed to volatile compounds; parameters: species or system Rubus idaeus L.; settings: 0.4 μl/ml vapor, 10 days, 10° C.; mean, 0 = intact, undamaged fruit, 3 = whole fruit necrotic and watersoaked
# Procedure: as §2
# (§4) A bioassay system was developed to test the effects of the volatile compounds on fungal growth both on intact fruit and on V-8 juice medium. The apparatus consisted of 75 ml glass jars into which either fruit or sterilized V-8 juice medium (10 ml) were added. These jars were placed in 275 ml airtight glass jars with aluminum foil cap liners. The bottom of each 275 ml jar was fitted with a 5.5 cm filter paper disk (Whatman No. 1) for application of the appropriate amount of test compound. The total gas headspace in the larger jars after the addition of all components was 250 ml.
# (§5) Red raspberries and strawberries were rinsed with sterile distilled water and allowed to dry before inoculation. The fruit was sprayed with the spore suspension to runoff. Single red raspberries or strawberries were placed in the 75 ml jars, and 100 μl each of a single test compound was added to the filter paper on the bottom of a 275 ml jar. The 275 ml jar was then sealed. Fruit were kept at 10° C. in the dark for 10 days then rated for development of fungi and for damage to the fruit due to the treatments. […]
# [4] = tested on: strawberries (cv. `Ozark Beauty`); assay: Fruit damage rating of inoculated strawberry fruit exposed to volatile compounds; parameters: species or system Fragaria ananassa, Duchesne; settings: 0.4 μl/ml vapor, 10 days, 10° C.; mean, 0 = intact, undamaged fruit, 3 = whole fruit necrotic and watersoaked
# Procedure: as §2, §4, §5
# A. alternata [5] = assay: Treatment of isolated cultures with 2-nonanone vapor; type: cell-based, Alternaria alternata; settings: 7 days, 10° C., 0 = no growth, 4 = media completely covered
# Procedure: as §1, §4
# (§6) The fungi assayed against included B. cinerea, C. gloeosporioides and A. alternata. The compound was bioassayed as a volatile using the apparatus described in Example 1 by placing 7 mm diameter plugs of mycelia from actively-growing 1 week-old cultures on V-8 juice media in the 75 ml jars, with the appropriate amount (0, 5, 10, 25 or 100 μl ) of compound applied to the filter paper on the bottom of the larger jar. Assuming complete volatilization, these amounts would produce a nonanone concentration within the headspace of 0.02, 0.04, 0.10, and 0.40 μL/ml, respectively. The sealed jars were then placed in a growth chamber in the dark at 10° C. for 7 days. Due to growth of fungi limited to the plug in many cases and the difficulty of accurately measuring the fungal growth in the jars, a rating system was developed as follows: 0, no growth of fungi, including on plug; 1, growth on plug only; 2, small amount of fungal growth on medium; 3, most of medium covered with fungal mycelia; and 4, all of medium covered. The treatment was replicated three times and the data were treated by statistical analysis of variance.
# B. cinerea [6] = assay: as above; type: cell-based, Botrytis cinerea; settings: 7 days, 10° C., 0 = no growth, 4 = media completely covered
# Procedure: as §1, §4, §6
# C. gloeosporioides [7] = assay: as above; type: cell-based, Colletotrichum gloeosporioides; settings: 7 days, 10° C., 0 = no growth, 4 = media completely covered
# Procedure: as §1, §4, §6
# A. alternata [8] = assay: Radial growth of cultures with 2-nonanone in the growth medium; type: cell-based; settings: Alternaria alternata, read-out: Fungal Growth (% of control), A. alternata
# Procedure: as §1, with “experiment. 2-Nonanone was assayed as a medium component by adding an appropriate amount to cooled V-8 juice media in 9.0 cm plastic petri dishes. Experiments were initiated by placing 7 mm plugs of mycelia in the center of the petri dishes. As the cultures were nearly circular, the radii (from the inoculum plug to one typical point on the growing margin) of the cultures were measured and expressed as a percentage of the control. The treatment was replicated five times and the data were treated by analysis of variance.” for “experiment.”
# B. cinerea [9] = assay: as above; type: cell-based; settings: Botrytis cinerea, read-out: Fungal Growth (% of control), B. cinerea
# Procedure: as §1, with “experiment. 2-Nonanone was assayed as a medium component by adding an appropriate amount to cooled V-8 juice media in 9.0 cm plastic petri dishes. Experiments were initiated by placing 7 mm plugs of mycelia in the center of the petri dishes. As the cultures were nearly circular, the radii (from the inoculum plug to one typical point on the growing margin) of the cultures were measured and expressed as a percentage of the control. The treatment was replicated five times and the data were treated by analysis of variance.” for “experiment.”
# C. gloeosporioides [10] = assay: as above; type: cell-based; settings: Colletotrichum gloeosporioides, read-out: Fungal Growth (% of control), C. gloeosporioides
# Procedure: as §1, with “experiment. 2-Nonanone was assayed as a medium component by adding an appropriate amount to cooled V-8 juice media in 9.0 cm plastic petri dishes. Experiments were initiated by placing 7 mm plugs of mycelia in the center of the petri dishes. As the cultures were nearly circular, the radii (from the inoculum plug to one typical point on the growing margin) of the cultures were measured and expressed as a percentage of the control. The treatment was replicated five times and the data were treated by analysis of variance.” for “experiment.”
# rat = settings: cited from earlier work
smiles,measurement,setting,value
"CCCCCCCC(C)=O [2-Nonanone, 2-nonanone]","Fungal Rating, Raspberry",[1],0.0
same,"Fungal Rating, Strawberry",[2],0.0
same,"Fruit damage rating, Raspberry",[3],2.0
same,"Fruit damage rating, Strawberry",[4],1.7
same,"Fungal Growth Rating, A. alternata",A. alternata [5]; vapor phase 0.02 μl/ml,2.7
same,"Fungal Growth Rating, A. alternata",A. alternata [5]; vapor phase 0.04 μl/ml,1.3
same,"Fungal Growth Rating, A. alternata",A. alternata [5]; vapor phase 0.10 μl/ml,0.0
same,"Fungal Growth Rating, A. alternata",A. alternata [5]; vapor phase 0.40 μl/ml,0.0
same,"Fungal Growth Rating, B. cinerea",B. cinerea [6]; vapor phase 0.02 μl/ml,1.0
same,"Fungal Growth Rating, B. cinerea",B. cinerea [6]; vapor phase 0.04 μl/ml,0.0
same,"Fungal Growth Rating, B. cinerea",B. cinerea [6]; vapor phase 0.10 μl/ml,0.0
same,"Fungal Growth Rating, B. cinerea",B. cinerea [6]; vapor phase 0.40 μl/ml,0.0
same,"Fungal Growth Rating, C. gloeosporioides",C. gloeosporioides [7]; vapor phase 0.02 μl/ml,2.0
same,"Fungal Growth Rating, C. gloeosporioides",C. gloeosporioides [7]; vapor phase 0.04 μl/ml,0.6
same,"Fungal Growth Rating, C. gloeosporioides",C. gloeosporioides [7]; vapor phase 0.10 μl/ml,0.0
same,"Fungal Growth Rating, C. gloeosporioides",C. gloeosporioides [7]; vapor phase 0.40 μl/ml,0.0
same,activity at 0.01 %,A. alternata [8]; 0.01% in V-8 juice medium,85.2%
same,activity at 0.1 %,A. alternata [8]; 0.10% in V-8 juice medium,48.7%
same,activity at 1 %,A. alternata [8]; 1.00% in V-8 juice medium,0%
same,activity at 0.01 %,B. cinerea [9]; 0.01% in V-8 juice medium,100%
same,activity at 0.1 %,B. cinerea [9]; 0.10% in V-8 juice medium,83%
same,activity at 1 %,B. cinerea [9]; 1.00% in V-8 juice medium,0%
same,activity at 0.01 %,C. gloeosporioides [10]; 0.01% in V-8 juice medium,100%
same,activity at 0.1 %,C. gloeosporioides [10]; 0.10% in V-8 juice medium,95.7%
same,activity at 1 %,C. gloeosporioides [10]; 1.00% in V-8 juice medium,0%
same,oral rat LD50,rat,3200 mg/kg
